In paper PMC5108032, “Discovery of a Quinoline-4-carboxamide Derivative with a Novel Mechanism of Action, Multistage Antimalarial Activity, and Potent in Vivo Efficacy” (Journal of Medicinal Chemistry, 2016):

Assays:
[1] = test system: Plasmodium falciparum strain 3D7; test: Plasmodium falciparum screening, SYBR green growth inhibition; type: cell-based; conditions: 3D7, supplementary csv, read-out: Pf (3D7) EC50
Description: Plasmodium falciparum screening
Assays against P. falciparum were conducted as previously described.1 Cultures of the widely-used malaria reference strain of chloroquine-sensitive Plasmodium falciparum strain 3D7 were maintained in a 5% suspension of human red blood cells (obtained from East of Scotland Blood Transfusion Service, Ninewells Hospital, Dundee) cultured in RPMI 1640 medium (pH 7.3) supplemented with 0.5% Albumax II (Gibco Life Technologies, San Diego, CA), 12 mM sodium bicarbonate, 0.2 mM hypoxanthine and 20 mg/L gentamicin at 37°C, in a humidified atmosphere of 1% O 2, 3% CO2 with a balance of nitrogen. Growth inhibition was quantified using a fluorescence assay utilising the binding of SYBR green to double stranded DNA, which emits a fluorescent signal at 528 nm after excitation at 485nm.2 Mefloquine (potency range 30-60 nM) was used as a drug control to monitor the quality of the assay (Z’ = 0.6 to 0.8, Signal to background >3, where Z’ is a measure of the discrimination between the positive and negative controls on a screen plate). A 96-well [3H]-Hypoxanthine incorporation assay was also developed as a secondary assay in order to validate compounds from the initial screen in an orthogonal platform.3 Compound bioactivity from both assays was expressed as […]
P. falciparum (panel of resistant strains) in vitro assay. (Swiss TPH)
All Plasmodium strains were cultured according to Trager and Jensen and are described at www.beiresources.org (resistant strains: K1, W2, 7G8, TM90C2A, D6 and V1/S, sensitive strain:
NF54). EC50 values were determined in vitro by measuring incorporation of the nucleic acid precursor […]
Mammalian Cell Growth Inhibition assay
A counter-screen against normal diploid human fibroblasts (MRC-5 cell line) was carried out to exclude non-selective, and toxic compounds. The assay was essentially carried out as described previously.4 Cells were plated and incubated overnight to allow them to adhere as monolayers. A working stock of each test compound was transferred to an intermediate 384-well plate and pre-diluted with minimum essential media (MEM). The pre-diluted stocks were then transferred onto the cell monolayers, and the plates were incubated for 68 h. Resazurin, to a final concentration of 50 μM, was added to each well, after which plates were incubated for a further 3 h and measured for fluorescence (λex=528 nm, λem=590 nm)
In vitro Cell Assay Data Analysis.
All data was processed using IDBS ActivityBase® raw data was converted into per cent inhibition through linear regression by setting the high inhibition control as 100% and the no inhibition control as 0%. Quality control criteria for passing plates were as follows: Z’> 0.5, S:B> 3, %CV(no inhibition < 15 . The formula used to calculate Z’ is 1 3× (St D e v _ hi gh + St D e v _ low) . […]
All EC50 Curve fitting was undertaken using XLFit version 4.2 using Model 205 with the following 4 parametric equation: y = A + B A A + ($-&) ,where A=% inhibition at bottom, B=% […]
(§1) inhibition at top, C= EC50, D= slope, x= inhibitor concentration and y= % inhibition. […]
(§2) reach 100% of inhibition, B was fixed to 100 only when at least 50% of inhibition was reached.
(§3) Plasmodium falciparum late stage (IV-V) gametocyte high content imaging assay Plasmodium falciparum NF54-pfs16-LUC-GFP stage IV-V Gametocytes were produced as described previously.5 Compounds were solubilized in DMSO and serially diluted in three concentrations per log standard curves in DM SO. One µl of compound was subsequently diluted in 25µl of water (4% DMSO) and 5µl transferred into the base of 384 well PerkinElmer CellCarrier plates. Forty-five µl of stage IV-V gametocytes (10%P in 0.1%H) were added to the imaging plates which were in turn sealed with a gas permeable membrane and incubated at 37°C, 5% CO 2, 5% O2, 90% N2 and 60% humidity […]
Post incubation, 5µl of MitoTracker® Red CM -H2Xros (MTR) solution (0.66ug/ml) was added to all wells and the plates incubated for a further 16hours. […]

[2] = Intrinsic clearance (Cli) in human liver microsomes; type: in vitro ADME; conditions: human liver microsome
Description: as §1, §2, §3
Post incubation, 5µl of MitoTracker® Red CM -H2Xros (MTR) solution (0.66ug/ml) was added to all wells and the plates incubated for a further 16hours. The assay plates were then imaged and the number of viable gametocytes determined for test compounds plus 0.4%DMSO and 5µM Puromycin.
(0.4%DMSO) control values. Percent inhibition was plotted against log compound concentration using a 4 parameter log dose, non-linear regression analysis, with sigmoidal dose response (variable slope) curve fit using Prizm 4.0. IC50 values were obtained from this curve fit. The compound testing was performed in duplicate point within two separate experiments.
Plasmodium berghei ookinete development assay
Assay was performed as previously reported.6 Briefly blood containing P. berghei CTRPp-GFP gametocytes was rapidly harvested from infected mice and introduced to test compounds pre-diluted in ookinete medium (to induce gamete formation and support ookinete development) in 96-well plates. Plates were incubated in the dark at 21°C for 22 hr before GFP fluorescence intensity measured in a plate reader. % inhibition of ookinete formation was calculated with reference to the fluorescence intensity values of a positive control (20 µM cycloheximide) and a solvent-only negative control (DMSO). All assays were performed in triplicate independent experiments and EC50 values calculated in Graphpad Prism.
The aqueous solubility of the test compounds was measured using laser nephelometry, as described previously.7 Compounds were subject to serial dilution from 10 mg/mL to 0.5 mg/mL in DMSO. An aliquot was then mixed with MilliQ water to obtain an aqueous dilution plate with a final concentration range of 100 – 5 μg/mL, with a final DMSO concentration of 1.0%. Triplicate aliquots were transferred to a flat bottomed polystyrene plate which was immediately read on the NEPHELOstar (BMG Lab Technologies). The amount of laser scatter caused by insoluble particulates (relative nephelometry units, RNU) was plotted against compound concentration using a segmental regression fit, with the point of inflection being quoted as the compounds aqueous solubility (μg/mL; […]
Intrinsic Clearance (Cli) experiments
The procedure was carried out as reported previously.7 Test compound (0.5 µM) was incubated with female CD1 mouse, male sprague-dawley rat or pooled human mixed gender liver microsomes (Xenotech LLC TM; 0.5 mg/mL 50 mM potassium phosphate buffer, pH 7.4) and the reaction initiated […]
by the addition of excess NADPH (8 mg/mL 50 mM potassium phosphate buffer, pH 7.4). […]

Structure (SMILES)	EC50 [1] [nM]	HLM Cli [2] [mL min^–1 g^–1]
O=C(NCCN1CCCC1)c1cc(NCCCCN2CCOCC2)nc2ccc(Cl)cc12 [Compound 27, 6-Chloro-2-((4-morpholinobutyl)amino)-N-(2-(pyrrolidin-1-yl)ethyl)quinoline-4-carboxamide]	3.8	<1
O=C(NCCN1CCCC1)c1cc(NCCCN2CCOCC2)nc2ccc(F)cc12 [Compound 25, 6-Fluoro-2-((3-morpholinopropyl)amino)-N-(2-(pyrrolidin-1-yl)ethyl)quinoline-4-carboxamide]		<0.5
O=C(NCCN1CCCC1)c1cc(NCCC2CCOCC2)nc2ccc(Cl)cc12 [Compound 30, 6-Chloro-N-(2-(pyrrolidin-1-yl)ethyl)-2-((2-(tetrahydro-2H-pyran-4-yl)ethyl)amino)quinoline-4-carboxamide]		1

The next lines start with results.

EC50 [1] [nM]	Structure (SMILES)	HLM Cli [2] [mL min^–1 g^–1]
1.9	O=C(NCCN1CCCC1)c1cc(-c2ccc(CN3CCOCC3)cc2F)nc2ccc(F)cc12 [Compound 41]	1.5
4.4	O=C(NCCN1CCCC1)c1cc(-c2ccc(S(=O)(=O)N3CCOCC3)cc2)nc2ccc(F)cc12 [Compound 38, 6-Fluoro-2-(4-(morpholinosulfonyl)phenyl)-N-(2-(pyrrolidin-1-yl)ethyl)quinoline-4-carboxamide]	
